Results: patent US8772280B2, “N-aryl-2-(2-arylaminopyrimidin-4-yl)pyrrol-4-carboxamide derivatives as MPS1 kinase inhibitors” (Nerviano Medical Sciences S.R.L., priority 2009, dated 2014)
pIC50: −log10 of the molar value.

Molecular target: MPS1 (Homo sapiens, UniProt P33981)
Experiment: biochemical
Method: Amplification was performed using the forward oligonucleotide:
The inhibitory activity of putative kinase inhibitors and the potency of selected compounds were determined using a trans-phosphorylation assay.
Three cycles of mixing are done immediately after the addition of the resin.

Sequence of MPS1 (P33981 2-857): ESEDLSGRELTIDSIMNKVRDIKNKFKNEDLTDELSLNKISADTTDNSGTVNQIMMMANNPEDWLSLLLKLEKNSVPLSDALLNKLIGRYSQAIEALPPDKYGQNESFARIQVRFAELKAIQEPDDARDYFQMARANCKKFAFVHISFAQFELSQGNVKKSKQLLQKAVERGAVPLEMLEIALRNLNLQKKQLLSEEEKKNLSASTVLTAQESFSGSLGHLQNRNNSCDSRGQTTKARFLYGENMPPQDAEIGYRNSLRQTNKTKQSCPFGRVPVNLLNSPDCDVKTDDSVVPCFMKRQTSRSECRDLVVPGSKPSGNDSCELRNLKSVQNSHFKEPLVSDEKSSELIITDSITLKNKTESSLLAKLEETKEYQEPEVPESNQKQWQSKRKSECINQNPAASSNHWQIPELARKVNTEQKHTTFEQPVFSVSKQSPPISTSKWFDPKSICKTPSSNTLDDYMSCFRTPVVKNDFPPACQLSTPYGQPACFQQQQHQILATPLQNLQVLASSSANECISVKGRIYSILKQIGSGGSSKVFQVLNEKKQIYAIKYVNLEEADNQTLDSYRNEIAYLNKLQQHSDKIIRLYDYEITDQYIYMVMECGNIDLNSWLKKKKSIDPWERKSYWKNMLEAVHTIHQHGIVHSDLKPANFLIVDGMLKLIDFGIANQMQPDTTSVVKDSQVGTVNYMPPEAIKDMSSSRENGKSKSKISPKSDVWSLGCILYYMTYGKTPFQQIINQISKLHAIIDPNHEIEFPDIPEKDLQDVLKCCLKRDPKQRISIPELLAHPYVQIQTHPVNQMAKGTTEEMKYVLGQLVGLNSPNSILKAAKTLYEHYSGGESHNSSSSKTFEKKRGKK

SMILES | pIC50
CCc1cccc(CC)c1NC(=O)c1cc(-c2nc(Nc3ccc(C(=O)N4CCC(N(C)C)CC4)cc3C)ncc2C)n(C)c1 [Compound 31, 5-{2-[4-(4-Dimethylamino-piperidine-1-carbonyl)-2-methyl-phenylamino]-5-methyl-pyrimidin-4-yl}-1-methyl-1H-pyrrole-3-carboxylic acid (2,6-diethyl-phenyl)-amide] | 7.17
CCc1cccc(CC)c1NC(=O)c1cc(-c2ccnc(Nc3ccc(N(C)CCCN(C)C)cc3OC)n2)n(C)c1 [Compound 32, 5-(2-{4-[(3-Dimethylamino-propyl)-methyl-amino]-2-methoxy-phenylamino}-pyrimidin-4-yl)-1-methyl-1H-pyrrole-3-carboxylic acid (2,6-diethyl-phenyl)-amide] | 6.96
CCc1cccc(CC)c1NC(=O)c1cc(-c2nc(Nc3ccc(C(N)=O)cc3C)ncc2Cl)n(C)c1Cl [Compound 21, 5-[2-(4-Carbamoyl-2-methyl-phenylamino)-5-chloro-pyrimidin-4-yl]-2-chloro-1-methyl-1H-pyrrole-3-carboxylic acid (2,6-diethyl-phenyl)-amide] | 7.66
CCc1cccc(CC)c1NC(=O)c1cc(-c2ccnc(Nc3ccc(C(=O)N(C)C)cc3C)n2)n(C)c1 [Compound 14, 5-[2-(4-Dimethylcarbamoyl-2-methyl-phenylamino)-pyrimidin-4-yl]-1-methyl-1H-pyrrole-3-carboxylic acid (2,6-diethyl-phenyl)-amide] | 7.39
COc1cc(N2CCN(C)CC2)ccc1Nc1nccc(-c2cc(C(=O)Nc3c(C)cccc3Cl)cn2C)n1 [Compound 37, 5-{2-[2-Methoxy-4-(4-methyl-piperazin-1-yl)-phenylamino]-pyrimidin-4-yl}-1-methyl-1H-pyrrole-3-carboxylic acid (2-chloro-6-methyl-phenyl)-amide] | 7.08
